Values quoted from earlier work in US20170348252A1, “Preparation and Use of Ketamine Derivatives and Ketamine Modifiers in the Treatment of Pain” (priority 2016, published 2017).

Settings: relative to thiopental; from Anirudda Pai et al. 2007

For `CNC1(c2ccccc2Cl)CCCCC1=O` (racemic) [Ketamine, 2-(2-chlorophenyl)-2-methylamino cyclohexanone], the lipid solubility is given as 5-10 times that of thiopental.
